{"source": "patent US9528090B2", "about": "“Differentiation of human embryonic stem cells” (Janssen Biotech, Inc., priority 2010, dated 2016)", "test_system": "human embryonic stem cells line H1", "assay": "Definitive endoderm differentiation of H1 cells in FBS medium (GDF8/GSK3B inhibitor) with IGF or insulin: FACS and real-time PCR", "type": "cell-based", "settings": "in the presence of FBS, 10-100 ng/ml, day 4", "procedure": "Cells of the human embryonic stem cells line H1 (p40-p52) were seeded as single cells at a density of 100000 cells/cm^2 on MATRIGEL® (1:30 dilution) (BD Biosciences; Cat #356231)-coated dishes in MEF-CM (mouse embryonic fibroblast conditioned media) supplemented with 16 ng/ml of FGF2 (Catalog#100-18B, PeproTech, NJ) and 10 μM of Y27632 (Rock inhibitor, Catalogue#Y0503, Sigma, Mo.). 72 hrs post seeding, cultures were differentiated into definitive endoderm (DE) as follows: • a. with MCDB-131 (Catalogue#10372-019, Invitrogen, CA) medium supplemented with 0.2% FBS (Catalogue#SH30070.03, Hyclone, UT), 0.0025 g/ml sodium bicarbonate (Catalogue #S3187, Sigma, Mo.), 1× GlutaMax™ (Catalogue #35050-079, Invitrogen, Ca) and 100 ng/ml GDF8 (Catalogue#120-00, PeproTech, NJ) plus 2.5 μM of the GSK3B inhibitor 14-Prop-2-en-1-yl-3,5,7,14,17,23,27-heptaazatetracyclo[19.3.1.1˜2,6˜0.1˜8,12˜]heptacosa-1(25),2(27),3,5,8(26),9,11,21,23-nonaen-16-one for one day, then • b. MCDB-131 medium supplemented with FBS, sodium bicarbonate, Glutamax, and 100 ng/ml GDF8 for an additional three days.\n0.5% FBS was used for day 2 and 2% FBS was used for days 3-4. Besides regular FBS, heat treated FBS (Catalogue#F4135, Sigma, Mo.) and charcoal stripped treated FBS (Catalogue#F6765, Sigma, Mo.) were also tested. Some of the FBS treated cultures were also treated with various concentrations of IGF (10-100 ng/ml) or insulin (10-100 ng/ml).\nAt day 4, samples were collected for analysis by FACS and real-time PCR."}
{"substance": "insulin", "values": [{"measurement": "expression of the pluripotency marker NANOG", "result": "upregulated"}, {"measurement": "markers associated with definitive endoderm such as SOX17 and CCXR4", "result": "dose dependently down regulated"}]}
